From patent US20140329863A1 (priority 2011, published 2014)
Where two headings read alike, the source gives them in different places.

Legend:
[1] = target: T1, CYP3A4 (Homo sapiens, UniProt P08684); test: CYP phenotyping in human liver microsomes, ketoconazole; assay type: in vitro ADME; conditions: for CYP Involvement: CYP3A4, NADPH + Ketoconazole; for % Disappearance / Measured Conc. / Δ % Disappearance: reversible incubation condition, NADPH + Ketoconazole
T1 construct: tissue BD Biosciences; host or cells: pooled human liver microsomes

[2] = Single-dose pharmacokinetic studies in female FVB mice (PO, IV, IP); assay type: in vivo, mouse; conditions: mouse; for bioavailability / Kp: female, 10 mg/kg; for bioavailability: FVB, mice, IV 1 mg/kg, oral 10 mg/kg, read-out: oral (absolute) bioavailability; for Kp: brain and plasma, FVB mice, single oral dose, read-out: brain:plasma AUClast ratio
Protocol: For in-vivo pharmacokinetic studies, compounds were dissolved in a formulation containing 20% propylene glycol, 5% ethanol, 5% labrosol, and 70% polyethylene glycol 400 (PEG400) and administered by oral gavage to female FVB mice weighing ˜25 g. At specified time points after dosing (0.25, 0.5, 1, 2, 4, 6, and 24 h), 2 animals were euthanized by CO2, and ˜1 mL blood (by cardiac puncture) and brain samples were collected. The heparinized blood samples were centrifuged to obtain plasma, which was stored at −80° C. until analysis. Brain samples were weighed, diluted […] with water, and then homogenized using a Precellys 24 tissue homogenizer. Brain homogenates (20% wt/vol) were stored at −80° C. until analysis. Pharmacokinetic protocols involving animals were all reviewed and approved by the UCSF institutional animal care and use committee (IACUC).
(§1) Plasma and brain homogenate samples were extracted using a protein-precipitation method and analyzed by specific LC/MS/MS methods developed for each compound dosed in vivo. The analytical method accuracy and precision were monitored by analyzing quality control (QC) samples that were prepared and treated using the same methods as calibration standards for the plasma or brain homogenate samples.
The data were used to calculate the area under the concentration-time curve (AUClast) by noncompartmental analysis with sparse sampling performed using Phoenix WinNonlin 6.1 software (Pharsight, Mountain View, Calif.).
Pharmacokinetic protocols employing mice were reviewed and approved by the UCSF Institutional Animal Care and Use Committee (IACUC). Female FVB mice, weighing approximately 25 g, were used for all in vivo pharmacokinetic studies. Mice were housed with free access to food and water, and were maintained on 12-h light/dark cycles for 1 week before dosing studies were initiated.
For the single-dose of 40 mg/kg, compounds were dissolved in a formulation containing 5% propylene glycol, […] α-tocopheryl polyethylene glycol 1000 succinate (TPGS) and 70% polyethylene glycol 400 (PEG400), and administered by oral gavage. Two animals per time point were used. At specified time points after dosing (0.5, 1, 2, 4, 6, and 24 h), animals were euthanized by CO2, and blood for plasma (by cardiac puncture) and brain samples were collected. The heparinized blood samples were centrifuged to obtain plasma. Brain samples were weighed, diluted 10-fold with water, and then homogenized using a Precellys 24 tissue homogenizer. The brain and plasma samples were flash-frozen on dry ice and then stored at −80° C. until analysis. For the single-dose administration at 10 mg/kg, compounds were dissolved in a formulation containing 20% propylene glycol, 5% ethanol, 5% labrosol, and 70% PEG400, and administered by oral gavage. Two animals per time point were used. At specified time points after dosing (0.25, 0.5, 1, 2, 4, 6, and 24 h), animals were euthanized by CO2, and blood for plasma (by cardiac puncture) and brain samples were collected. The heparinized blood samples were centrifuged to obtain plasma. Brain samples were weighed, diluted five-fold with water, and then homogenized using a Precellys 24 tissue homogenizer. The brain and plasma samples were flash-frozen on dry ice and then stored at −80° C. until analysis.
Compounds were administered through tail vein injection. Two animals per time point were used. At specified time points after dosing (5 min, 0.25, 0.5, 1, 2, 4, and 6 h), animals were euthanized by CO2. Blood and brain samples were obtained and processed as described above for the oral dosing at 40 mg/kg.
as §1, with “by” for “and treated using”, “as” for “as calibration standards for”, “samples. […]” for “samples.”

[3] = in vitro; conditions: mouse, 20% brain homogenate
[4] = in vitro; conditions: FVB, mouse, 20% brain homogenate, pH 7.4, nonbound free fraction in brain, 1 and 10 μM
[5] = 1 and 10 μM
[6] = CYP phenotyping in human liver microsomes, no inhibitor (negative control, maximum metabolism); assay type: in vitro ADME
[7] = irreversible incubation condition, maximum metabolism, NADPH/No Inhibitor
[8] = irreversible incubation condition, negative control, No NADPH/No Inhibitor
[9] = reversible incubation condition, maximum metabolism, NADPH/No Inhibitor
[10] = reversible incubation condition, negative control, No NADPH/No Inhibitor

T1 sequence (P08684 whole entry): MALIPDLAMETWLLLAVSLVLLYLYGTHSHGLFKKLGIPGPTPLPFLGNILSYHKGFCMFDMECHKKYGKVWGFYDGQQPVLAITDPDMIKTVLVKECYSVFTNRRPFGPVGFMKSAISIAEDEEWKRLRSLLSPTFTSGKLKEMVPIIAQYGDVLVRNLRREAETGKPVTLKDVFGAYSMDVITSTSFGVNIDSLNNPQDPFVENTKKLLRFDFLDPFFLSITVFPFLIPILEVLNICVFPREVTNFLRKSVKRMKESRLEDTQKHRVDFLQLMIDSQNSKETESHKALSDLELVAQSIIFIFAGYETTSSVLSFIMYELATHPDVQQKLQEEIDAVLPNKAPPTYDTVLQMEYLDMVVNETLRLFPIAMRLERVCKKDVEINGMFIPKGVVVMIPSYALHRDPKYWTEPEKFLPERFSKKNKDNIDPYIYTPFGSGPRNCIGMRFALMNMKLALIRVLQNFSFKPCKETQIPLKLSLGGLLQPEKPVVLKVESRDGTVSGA

| Structure (SMILES) | CYP Involvement [1] | % Disappearance [1] [%] | Measured Conc. [1] [µM] | Δ % Disappearance [1] | bioavailability ([2]; plasma, oral) [%] | bioavailability ([2]; plasma, po) [%] | Kp [2] | fraction unbound [3] | fraction unbound at 4 h [4] | brain tissue binding [5] | % Disappearance [6, 7] | Measured Conc. [6, 7] [µM] | Δ % Disappearance [6, 7] [%] | Measured Conc. [6, 8] [µM] | % Disappearance [6, 9] [%] | Measured Conc. [6, 9] [µM] | Δ % Disappearance [6, 9] [%] | % Disappearance [6, 10] [%] | Measured Conc. [6, 10] [µM] | further results |
| --- | --- | --- | --- | --- | --- | --- | --- | --- | --- | --- | --- | --- | --- | --- | --- | --- | --- | --- | --- | --- |
| Cc1cccc(Nc2nc(-c3ccc(-c4ccccc4)cc3)cs2)n1 [IND24, (4-Biphenyl-4-yl-thiazol-2-yl)-(6-methyl-pyridin-2-yl)-amine] | Unlikely (unlikely for values <5) | 15 | 0.557 | 0 (−15) % | 27 to 40 | 40 | 2.6 | 0.07 to 0.08 | 0.06 to 0.09 | 92-93% | 0 (−18) % | 0.733 | 0 | 0.622 | 0 | 0.655 | 0 | 0 | 0.654 | half-life ([2]; plasma, female FVB mice, 1 mg/kg IV): 2 h |
| Cc1ccnc(Nc2nc(-c3ccc(-c4ccccn4)s3)cs2)c1 [IND81, (4-Methyl-pyridin-2-yl)-[4-(5-pyridin-2-yl-thiophen-2-yl)-thiazol-2-yl]-amine] | Likely (likely for values >10) | 51 | 0.324 | 15% | 27 to 40 | 25 to 27 | 5.5 | 0.09 | 0.06 to 0.09 | ~90% | 84% | 0.143 | 0 | 0.899 | 66 | 0.226 | 0 | 0 | 0.664 | % Disappearance [6, 8]: 0% |
| C(=N\Nc1ccc(-c2cnco2)cc1)/c1ccncc1 [IND54304, reference compound] |  |  |  |  |  | 25 to 27 | 0.5 |  |  |  |  |  |  |  |  |  |  |  |  |  |
